The target of this test is T1, GluR0 (Synechocystis sp. PCC 6803, UniProt P73797).
T1 sequence (P73797 20-397): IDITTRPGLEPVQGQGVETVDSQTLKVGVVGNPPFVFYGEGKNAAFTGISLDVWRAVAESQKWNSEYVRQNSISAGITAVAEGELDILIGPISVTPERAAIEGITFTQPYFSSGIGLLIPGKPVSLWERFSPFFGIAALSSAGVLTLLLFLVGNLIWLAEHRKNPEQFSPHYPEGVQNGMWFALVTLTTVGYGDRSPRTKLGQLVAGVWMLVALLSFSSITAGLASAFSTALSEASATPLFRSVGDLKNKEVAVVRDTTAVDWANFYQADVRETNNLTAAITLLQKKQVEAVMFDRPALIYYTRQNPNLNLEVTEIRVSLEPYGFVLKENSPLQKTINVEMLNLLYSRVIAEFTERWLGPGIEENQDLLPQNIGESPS
The experiment in a line: two-electrode voltage clamp, Xenopus oocytes. The format is cell-based. For orientation: In two-electrode clamp one electrode senses voltage and the other passes current.

Each structure is given as a SMILES string.

What is called EC50 is the concentration at which the effect is half-maximal.

`N[C@@H](CCC(=O)O)C(=O)O` [L-glutamate] registered an EC50 of 29.9 ± 5 µM.

The record behind these values is publication doi:10.1101/2021.01.27.428399v1 (biorxiv, 2021).
